Source: patent US20240409585A1, “MACROCYCLIC IMMUNOMODULATORS” (priority 2021, published 2024)
Numbered stars: 1 amine (or outer) side, 2 acyl side, 3 side chain; on linkers, the order of the positions; unused ones are H or OH. Bridge positions count the residues as written; N and C are the ends. Square brackets hold non-standard residues; d marks the D form. Peptide text beside a SMILES is read from it. * marks the point of attachment. Bip(4'-COOH) = N[C@@H](Cc1ccc(-c2ccc(C(=O)O)cc2)cc1)C(=O)O; Bip(4'-NHAc) = CC(=O)Nc1ccc(-c2ccc(C[C@H](N)C(=O)O)cc2)cc1; X2 = O=C(C[C@H](N[*:1])C(=O)[*:2])NS(=O)(=O)c1ccc(Cl)cc1; Phe(3-CF3) = N[C@@H](Cc1cccc(C(F)(F)F)c1)C(=O)O; X3 = CC(=O)NCc1cccc(C[C@H](N[*:1])C(=O)[*:2])c1; Ala(morpholin-4-yl) = N[C@@H](CN1CCOCC1)C(=O)O; Phe(4-CONH2) = NC(=O)c1ccc(C[C@H](N)C(=O)O)cc1; Phe(4-COOH) = N[C@@H](Cc1ccc(C(=O)O)cc1)C(=O)O; Bip = N[C@@H](Cc1ccc(-c2ccccc2)cc1)C(=O)O; Phe(3-F) = N[C@@H](Cc1cccc(F)c1)C(=O)O; Phe(3-I) = N[C@@H](Cc1cccc(I)c1)C(=O)O; Phe(3-Me) = Cc1cccc(C[C@H](N)C(=O)O)c1; Abu(3S-NH2) = C[C@H](N)[C@H](N)C(=O)O; Val(3-OH) = CC(C)(O)[C@H](N)C(=O)O; X11 = CC(N)[C@H](N[*:1])C(=O)[*:2]; Cha = N[C@@H](CC1CCCCC1)C(=O)O; Carboxymethyl = O=C(O)C*; NMeA = CN[C@@H](C)C(=O)O; Nle = CCCC[C@H](N)C(=O)O; Orn = NCCC[C@H](N)C(=O)O; Dab = NCC[C@H](N)C(=O)O

Columns and labels:
[1] = biological target: T1, PE-labeled human PD-L1-Ig binding to Jurkat cell line over-expressing human PD-1 (Jurkat-PD-1) (Homo sapiens, UniProt Q15116); test: Jurkat-PD-1 Cell Binding High-Content Screening Assay (CBA): Method 1; conditions: Jurkat-PD-1 cells, PE-labeled PD-L1-Ig
T1 construct: expressed in transfected cells; host or cells: Jurkat
T1 sequence (Q15116 25-288): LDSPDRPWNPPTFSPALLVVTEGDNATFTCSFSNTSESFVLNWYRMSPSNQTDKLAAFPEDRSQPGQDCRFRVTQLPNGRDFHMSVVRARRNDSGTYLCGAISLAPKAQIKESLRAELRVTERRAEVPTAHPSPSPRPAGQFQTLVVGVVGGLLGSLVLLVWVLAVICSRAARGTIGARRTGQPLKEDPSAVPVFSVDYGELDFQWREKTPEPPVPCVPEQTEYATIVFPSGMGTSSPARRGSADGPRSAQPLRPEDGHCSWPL

[2] = biological target: T1, PE-labeled human PD-L1-Ig binding to Jurkat cell line over-expressing human PD-1 (Jurkat-PD-1); test: Jurkat-PD-1 Cell Binding High-Content Screening Assay (CBA): Method 2 (presence and absence of tween-20); conditions: Jurkat-PD-1 cells, PE-labeled PD-L1-Ig 20 nM, presence or absence of tween-20 not given
Description: Jurkat-PD-1 Cell Binding High-Content Screening Assay (CBA): Method 2
Phycoerythrin (PE) was covalently linked to the Ig epitope tag of human PD-L1-Ig and fluorescently labeled PD-L1-Ig was used for binding studies with a Jurkat cell line over-expressing human PD-1 (Jurkat-PD-1). […] 100 nl of compound was added to cells followed by incubation at 37° C. for 2 hours. To interrogate potential issues with compound aggregation, compounds were tested in the presence and absence of tween-20 detergent. […] Then, 5 μl of PE-labeled PD-L1-Ig (20 nM final), diluted in DMEM supplemented with 10% fetal calf serum. […] Data was collected and processed using a Cell Insight NXT High Content Imager and associated software.

[3] = head μM, read-out: CBA Method 2 μM

Row | Structure (SMILES) | IC50 ([1]; μM, read-out: CBA Method 1 μM) [µM] | IC50 [2, 3] [µM] | IC50 ([1]; nM, read-out: CBA Method 1) [µM] | IC50 ([2]; nM, read-out: CBA Method 2) [µM]
1 | Cc1cccc(C[C@@H]2NC(=O)[C@H](CC(=O)O)NC(=O)[C@H](Cc3ccc(OCC(=O)O)cc3)NC(=O)[C@H](C(C)N)NC(=O)CSC[C@@H](C(=O)N[C@@H](CCN)C(N)=O)NC(=O)[C@H](CO)NC(=O)[C@H](C(C)(C)O)NC(=O)[C@H](CC3CCCCC3)NC(=O)[C@H](CCN)NC(=O)[C@@H](CC(C)C)NC(=O)[C@H](C)N(C)C(=O)[C@H](Cc3ccc(C(N)=O)cc3)NC(=O)[C@H](Cc3ccc(-c4ccccc4)cc3)NC(=O)[C@H](Cc3ccc(OCC(=O)O)cc3)NC2=O)c1 (stereo partly drawn) [Example 5066] ({CH2CO}-[X11]Y(Carboxymethyl)D[Phe(3-Me)]Y(Carboxymethyl)[Bip][Phe(4-CONH2)][NMeA][dL][Dab][Cha][Val(3-OH)]SC[Dab]-NH2; thioether N-14) | 0.0304 | 0.0028 | – | –
2 | Cc1cccc(C[C@@H]2NC(=O)[C@H](CC(=O)O)NC(=O)[C@H](Cc3ccc(C(=O)O)cc3)NC(=O)[C@H](CN3CCOCC3)NC(=O)CSC[C@@H](C(=O)N[C@@H](CCN)C(N)=O)NC(=O)[C@H](CCCN)NC(=O)[C@H](C(C)C)NC(=O)[C@H](Cc3cccc(F)c3)NC(=O)[C@H](CCN)NC(=O)[C@@H](CC(C)C)NC(=O)[C@H](C)N(C)C(=O)[C@H](CCC(N)=O)NC(=O)[C@H](Cc3ccc(-c4ccccc4)cc3)NC(=O)[C@H](Cc3ccc(-c4ccc(C(=O)O)cc4)cc3)NC2=O)c1 [Example 5060] ({CH2CO}-[Ala(morpholin-4-yl)][Phe(4-COOH)]D[Phe(3-Me)][Bip(4'-COOH)][Bip]Q[NMeA][dL][Dab][Phe(3-F)]V[Orn]C[Dab]-NH2; thioether N-14) | 0.0068 | 0.0093 | – | –
3 | CCCC[C@@H]1NC(=O)CSC[C@@H](C(=O)N[C@@H](CCN)C(N)=O)NC(=O)[C@H](CCCN)NC(=O)[C@H](C(C)C)NC(=O)[C@H](CC2CCCCC2)NC(=O)[C@H](CCN)NC(=O)[C@@H](CC(C)C)NC(=O)[C@H](C)N(C)C(=O)[C@H](CCCN)NC(=O)[C@H](Cc2ccc(-c3ccccc3)cc2)NC(=O)[C@H](Cc2ccc(-c3ccc(C(=O)O)cc3)cc2)NC(=O)[C@H](Cc2cccc(C(F)(F)F)c2)NC(=O)[C@H](CC(=O)O)NC(=O)[C@H](Cc2ccc(-c3ccc(C(=O)O)cc3)cc2)NC1=O [Example 5088] ({CH2CO}-[Nle][Bip(4'-COOH)]D[Phe(3-CF3)][Bip(4'-COOH)][Bip][Orn][NMeA][dL][Dab][Cha]V[Orn]C[Dab]-NH2; thioether N-14) | 0.09 | 0.2 | – | –
4 | CCCC[C@@H]1NC(=O)CSC[C@@H](C(=O)N[C@@H](CCN)C(N)=O)NC(=O)[C@H](CCC(=O)O)NC(=O)[C@H](C(C)C)NC(=O)[C@H](CC2CCCCC2)NC(=O)[C@H](CCN)NC(=O)[C@@H](CC(C)C)NC(=O)[C@H](C)N(C)C(=O)[C@H](CCCN)NC(=O)[C@H](Cc2ccc(-c3ccccc3)cc2)NC(=O)[C@H](Cc2ccc(-c3ccc(C(=O)O)cc3)cc2)NC(=O)[C@H](Cc2cccc(C(F)(F)F)c2)NC(=O)[C@H](CC(=O)O)NC(=O)[C@H](Cc2ccc(-c3ccc(C(=O)O)cc3)cc2)NC1=O [Example 5089] ({CH2CO}-[Nle][Bip(4'-COOH)]D[Phe(3-CF3)][Bip(4'-COOH)][Bip][Orn][NMeA][dL][Dab][Cha]VEC[Dab]-NH2; thioether N-14) | 0.01 | 0.11 | – | –
5 | CC(=O)Nc1ccc(-c2ccc(C[C@@H]3NC(=O)[C@H](Cc4cccc(C)c4)NC(=O)[C@H](CC(=O)O)NC(=O)[C@H](Cc4ccc(C(=O)O)cc4)NC(=O)[C@H]([C@H](C)N)NC(=O)CSC[C@@H](C(=O)N[C@@H](CCN)C(N)=O)NC(=O)[C@H](CCCN)NC(=O)[C@H](C(C)C)NC(=O)[C@H](CC4CCCCC4)NC(=O)[C@H](CCN)NC(=O)[C@@H](CC(C)C)NC(=O)[C@H](C)N(C)C(=O)[C@H](CCC(N)=O)NC(=O)[C@H](Cc4ccc(-c5ccccc5)cc4)NC3=O)cc2)cc1 [Example 5051] ({CH2CO}-[Abu(3S-NH2)][Phe(4-COOH)]D[Phe(3-Me)][Bip(4'-NHAc)][Bip]Q[NMeA][dL][Dab][Cha]V[Orn]C[Dab]-NH2; thioether N-14) | 0.0032 | 0.0021 | – | –
6 | Cc1cccc(C[C@@H]2NC(=O)[C@H](CC(=O)O)NC(=O)[C@H](Cc3ccc(OCC(=O)O)cc3)NC(=O)[C@H](Cc3cccc(I)c3)NC(=O)CSC[C@@H](C(=O)N[C@@H](CCN)C(N)=O)NC(=O)[C@H](CCCN)NC(=O)[C@H](C(C)C)NC(=O)[C@H](CC3CCCCC3)NC(=O)[C@H](CCN)NC(=O)[C@@H](CC(C)C)NC(=O)[C@H](C)N(C)C(=O)[C@H](CCC(N)=O)NC(=O)[C@H](Cc3ccc(-c4ccccc4)cc3)NC(=O)[C@H](Cc3ccc(C(=O)O)cc3)NC2=O)c1 [Example 5036] ({CH2CO}-[Phe(3-I)]Y(Carboxymethyl)D[Phe(3-Me)][Phe(4-COOH)][Bip]Q[NMeA][dL][Dab][Cha]V[Orn]C[Dab]-NH2; thioether N-14) | 0.0045 | 0.0031 | – | –
7 | CC(C)C[C@H]1NC(=O)[C@H](C)N(C)C(=O)[C@H](CCCN)NC(=O)[C@H](Cc2ccc(-c3ccccc3)cc2)NC(=O)[C@H](Cc2ccc(-c3ccc(C(=O)O)cc3)cc2)NC(=O)[C@H](Cc2cccc(C(F)(F)F)c2)NC(=O)[C@H](CC(=O)O)NC(=O)[C@H](Cc2ccc(-c3ccc(C(=O)O)cc3)cc2)NC(=O)[C@H](Cc2ccc(OCC(=O)O)cc2)NC(=O)CSC[C@@H](C(=O)N[C@@H](CCN)C(N)=O)NC(=O)[C@H](CC(N)=O)NC(=O)[C@H](C(C)C)NC(=O)[C@H](CC2CCCCC2)NC(=O)[C@H](CCN)NC1=O [Example 5086] ({CH2CO}-Y(Carboxymethyl)[Bip(4'-COOH)]D[Phe(3-CF3)][Bip(4'-COOH)][Bip][Orn][NMeA][dL][Dab][Cha]VNC[Dab]-NH2; thioether N-14) | – | – | 0.0055 | 0.0099
8 | CC(=O)Nc1ccc(-c2ccc(C[C@@H]3NC(=O)[C@H](Cc4cccc(C)c4)NC(=O)[C@H](CC(=O)O)NC(=O)[C@H](Cc4ccc(C(=O)O)cc4)NC(=O)[C@H]([C@H](C)N)NC(=O)CSC[C@@H](C(=O)N[C@@H](CCN)C(N)=O)NC(=O)[C@H](CCCN)NC(=O)[C@H](C(C)C)NC(=O)[C@H](Cc4cccc(F)c4)NC(=O)[C@H](CCN)NC(=O)[C@@H](CC(C)C)NC(=O)[C@H](C)N(C)C(=O)[C@H](CCC(N)=O)NC(=O)[C@H](Cc4ccc(-c5ccccc5)cc4)NC3=O)cc2)cc1 [Example 5052] ({CH2CO}-[Abu(3S-NH2)][Phe(4-COOH)]D[Phe(3-Me)][Bip(4'-NHAc)][Bip]Q[NMeA][dL][Dab][Phe(3-F)]V[Orn]C[Dab]-NH2; thioether N-14) | 0.0081 | 0.0084 | – | –
9 | CC(C)C[C@H]1NC(=O)[C@H](C)N(C)C(=O)[C@H](CCC(N)=O)NC(=O)[C@H](Cc2ccc(-c3ccccc3)cc2)NC(=O)[C@H](Cc2ccc(C(=O)O)cc2)NC(=O)[C@H](Cc2cccc(C(F)(F)F)c2)NC(=O)[C@H](CC(=O)NS(=O)(=O)c2ccc(Cl)cc2)NC(=O)[C@H](Cc2ccc(C(=O)O)cc2)NC(=O)[C@H](CN2CCOCC2)NC(=O)CSC[C@@H](C(=O)N[C@@H](CCN)C(N)=O)NC(=O)[C@H](CCCN)NC(=O)[C@H](C(C)C)NC(=O)[C@H](CC2CCCCC2)NC(=O)[C@H](CCN)NC1=O [Example 5078] ({CH2CO}-[Ala(morpholin-4-yl)][Phe(4-COOH)][X2][Phe(3-CF3)][Phe(4-COOH)][Bip]Q[NMeA][dL][Dab][Cha]V[Orn]C[Dab]-NH2; thioether N-14) | 0.533 | 0.264 | – | –
10 | CC(=O)NCc1cccc(C[C@@H]2NC(=O)CSC[C@@H](C(=O)N[C@@H](CCN)C(N)=O)NC(=O)[C@H](CCCN)NC(=O)[C@H](C(C)C)NC(=O)[C@H](CC3CCCCC3)NC(=O)[C@H](CCN)NC(=O)[C@@H](CC(C)C)NC(=O)[C@H](C)N(C)C(=O)[C@H](CCC(N)=O)NC(=O)[C@H](Cc3ccc(-c4ccccc4)cc3)NC(=O)[C@H](Cc3ccc(C(=O)O)cc3)NC(=O)[C@H](Cc3cccc(C)c3)NC(=O)[C@H](CC(=O)O)NC(=O)[C@H](Cc3ccc(OCC(=O)O)cc3)NC2=O)c1 [Example 5033] ({CH2CO}-[X3]Y(Carboxymethyl)D[Phe(3-Me)][Phe(4-COOH)][Bip]Q[NMeA][dL][Dab][Cha]V[Orn]C[Dab]-NH2; thioether N-14) | 0.0032 | 0.0033 | – | –
11 | CC(C)C[C@@H]1NC(=O)[C@H](Cc2c[nH]c3ccccc23)NC(=O)[C@H](CC(N)=O)NC(=O)[C@H](Cc2ccc(O)cc2)NC(=O)[C@H](Cc2ccccc2)NC(=O)CSC[C@@H](C(=O)NCC(N)=O)NC(=O)[C@H](CO)NC(=O)[C@H](C(C)C)NC(=O)[C@H](CC(C)C)NC(=O)[C@H](CC(N)=O)NC(=O)[C@@H](CC(C)C)NC(=O)[C@H](C)N(C)C(=O)[C@H](C(C)C)NC(=O)[C@H](Cc2ccc(-c3ccccc3)cc2)NC1=O [Example 5025] ({CH2CO}-FYNWL[Bip]V[NMeA][dL]NLVSCG-NH2; thioether N-14) | 0.31 | 0.56 | – | –
12 | CC(=O)Nc1ccc(-c2ccc(C[C@@H]3NC(=O)[C@H](Cc4cccc(C(F)(F)F)c4)NC(=O)[C@H](CC(=O)O)NC(=O)[C@H](Cc4ccc(-c5ccc(C(=O)O)cc5)cc4)NC(=O)[C@H](CN4CCOCC4)NC(=O)CSC[C@@H](C(=O)N[C@@H](CCN)C(N)=O)NC(=O)[C@H](CCN)NC(=O)[C@H](C(C)C)NC(=O)[C@H](CC4CCCCC4)NC(=O)[C@H](CCN)NC(=O)[C@@H](CC(C)C)NC(=O)[C@H](C)N(C)C(=O)[C@H](CCCN)NC(=O)[C@H](Cc4ccc(-c5ccccc5)cc4)NC3=O)cc2)cc1 [Example 5091] ({CH2CO}-[Ala(morpholin-4-yl)][Bip(4'-COOH)]D[Phe(3-CF3)][Bip(4'-NHAc)][Bip][Orn][NMeA][dL][Dab][Cha]V[Dab]C[Dab]-NH2; thioether N-14) | 0.09 | 0.07 | – | –
